Experimental data as given in patent EP4663640A1 (Shanghai Institute of Materia Medica, Chinese Academy of …, priority 2023, dated 2024).
Like-named read-outs stand apart in the source and are kept apart here.

Legend:
hTRPC4 = molecular target: T1, hTRPC4 (Homo sapiens, UniProt Q9UBN4); assay: TRPC4 inhibitory activity assay (FLIPR calcium fluorescence); type: cell-based
T1 construct: expressed in transfected cells; host or cells: HEK-293
T1 sequence (Q9UBN4 1-977): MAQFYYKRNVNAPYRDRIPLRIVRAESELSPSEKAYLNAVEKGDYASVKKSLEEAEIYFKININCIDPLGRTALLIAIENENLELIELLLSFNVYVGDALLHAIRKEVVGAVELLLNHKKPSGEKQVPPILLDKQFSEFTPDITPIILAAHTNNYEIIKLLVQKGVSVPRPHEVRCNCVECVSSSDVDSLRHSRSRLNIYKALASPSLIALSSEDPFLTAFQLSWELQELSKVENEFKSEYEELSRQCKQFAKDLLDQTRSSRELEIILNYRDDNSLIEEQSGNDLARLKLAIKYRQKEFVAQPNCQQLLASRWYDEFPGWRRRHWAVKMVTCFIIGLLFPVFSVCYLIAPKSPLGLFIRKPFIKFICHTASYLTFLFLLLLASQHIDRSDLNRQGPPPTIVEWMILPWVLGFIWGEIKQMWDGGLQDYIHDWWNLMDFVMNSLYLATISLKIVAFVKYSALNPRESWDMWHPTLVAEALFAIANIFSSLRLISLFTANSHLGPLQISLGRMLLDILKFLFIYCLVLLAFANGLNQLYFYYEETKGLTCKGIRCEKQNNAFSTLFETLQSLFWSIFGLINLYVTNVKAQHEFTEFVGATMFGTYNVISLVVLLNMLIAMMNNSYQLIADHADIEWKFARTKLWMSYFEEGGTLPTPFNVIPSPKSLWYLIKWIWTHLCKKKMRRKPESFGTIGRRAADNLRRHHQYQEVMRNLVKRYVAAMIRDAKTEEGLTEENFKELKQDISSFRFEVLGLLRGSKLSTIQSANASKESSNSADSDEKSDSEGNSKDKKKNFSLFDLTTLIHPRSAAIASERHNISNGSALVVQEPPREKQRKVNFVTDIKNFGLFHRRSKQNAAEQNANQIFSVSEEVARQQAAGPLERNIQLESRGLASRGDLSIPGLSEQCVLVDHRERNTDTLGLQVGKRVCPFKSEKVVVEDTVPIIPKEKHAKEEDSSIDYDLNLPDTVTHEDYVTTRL
Procedure: (§1) HEK-293 cells expressing hTRPC3, hTRPC4 or hTRPC5 were seeded into black-bottomed 96-well plates coated with poly-lysine (PDL), with 2×10^4 cells per well. After 8 h of culture, the original culture medium was discarded, and 60 µL of Fluo-4/AM dye with a final concentration of 4 µM was added. The plates were incubated at 37 °C for 60 min, and then rinsed five times with calcium flow detection buffer. […] Then, the agonist Englerin A (EA) (MedChemExpress, Shanghai, China, final concentration of 0.3nM) was added, and the fluorescence signal was collected for 600 seconds. The fluorescence signal of the trajectory diagram is represented by F/F0, wherein F is the fluorescence signal at different time points, and F0 is the basic fluorescence signal, that is, the average value of the fluorescence signal at the first 10 time points. […] The area under the curve of the change in fluorescence intensity after adding EA was calculated. IC50 value was calculated using log[Inhibitor] vs. response - Variable slope, taking into account the area under the curve and the log value of the concentration of the compound.

hTRPC3 = molecular target: T2, hTRPC3 (Homo sapiens, UniProt Q13507); assay: TRPC3 inhibitory activity assay (FLIPR calcium fluorescence); type: cell-based; details: for relative selectivity TRPC3/ TRPC5: ratio of IC50 values
T2 construct: expressed in transfected cells; host or cells: HEK-293
T2 sequence (Q13507 1-921): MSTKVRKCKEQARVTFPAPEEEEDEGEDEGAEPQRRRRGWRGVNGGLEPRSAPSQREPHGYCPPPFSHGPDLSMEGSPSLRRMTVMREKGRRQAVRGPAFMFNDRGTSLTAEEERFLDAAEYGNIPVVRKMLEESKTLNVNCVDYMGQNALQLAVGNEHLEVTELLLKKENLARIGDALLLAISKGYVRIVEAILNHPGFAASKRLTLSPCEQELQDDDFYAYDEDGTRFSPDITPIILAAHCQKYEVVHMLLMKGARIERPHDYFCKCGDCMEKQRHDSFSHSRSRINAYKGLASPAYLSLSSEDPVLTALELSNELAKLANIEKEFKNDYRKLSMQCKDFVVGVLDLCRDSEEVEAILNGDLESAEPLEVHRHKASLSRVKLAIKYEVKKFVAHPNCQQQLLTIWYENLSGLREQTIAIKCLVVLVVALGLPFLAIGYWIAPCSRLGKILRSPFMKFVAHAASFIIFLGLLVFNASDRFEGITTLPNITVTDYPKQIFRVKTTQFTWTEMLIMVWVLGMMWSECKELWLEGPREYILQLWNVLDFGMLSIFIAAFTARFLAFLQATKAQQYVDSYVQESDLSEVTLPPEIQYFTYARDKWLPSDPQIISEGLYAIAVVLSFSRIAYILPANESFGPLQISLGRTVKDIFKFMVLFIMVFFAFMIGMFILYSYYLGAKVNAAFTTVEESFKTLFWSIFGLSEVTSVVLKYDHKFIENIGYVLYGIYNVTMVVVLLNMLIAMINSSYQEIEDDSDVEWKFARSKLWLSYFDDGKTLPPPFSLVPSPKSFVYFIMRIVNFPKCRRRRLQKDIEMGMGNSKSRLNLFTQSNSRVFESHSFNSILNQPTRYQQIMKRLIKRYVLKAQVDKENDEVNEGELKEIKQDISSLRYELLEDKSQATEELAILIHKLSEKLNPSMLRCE
Procedure: as §1

[1] = Table 3, read-out: inhibitory activity IC50 TRPC4
[2] = Table 3, read-out: inhibitory activity IC50 TRPC3

Row | SMILES | IC50 (hTRPC4; [1]) [nM] | IC50 (hTRPC3; [2]) [nM] | relative selectivity TRPC3/ TRPC5 (hTRPC3) | IC50 (hTRPC4) [nM] | IC50 (hTRPC3) [nM]
1 | Cn1c(=O)n(CCCO)c(=O)c2c1nc(C1(F)CCC(C(F)(F)F)CC1)n2Cc1ccc(Cl)cc1 (stereo not drawn) [Example E21, 7-(4-chlorobenzyl)-8-(1-fluoro-4-(trifluoromethyl)cyclohexyl)-1-(3-hydroxypropyl)-3-methyl-3,7-dihydro-1H-purine-2,6-dione] | 8.3 | 2830 | 555 |  | 
2 | COC1CCC(F)(c2nc3c(c(=O)n(CCCO)c(=O)n3C)n2Cc2ccc(Cl)cc2)CC1 (stereo not drawn) [Example E32, 7-(4-chlorobenzyl)-8-(1-fluoro-4-methoxycyclohexyl)-1-(3-hydroxypropyl)-3-methyl-3,7-dihydro-1H-purine-2,6-dione] | 18.4 | > 10000 | > 980 |  | 
3 | Cn1c(=O)n(CCCO)c(=O)c2c1nc(C1(F)CCC(C(F)(F)F)CC1)n2Cc1ccc(F)c(F)c1 (stereo not drawn) [Example E52] |  |  | 1946 | 5.7 | 2530
